Measurements taken from patent US5906831A, “Controlled release composition forming a reversed micellar (L2) structure or a normal micellar (L1) structure” (GS Development AB, priority 1994, dated 1999).

Assays:
[1] = visual inspection of mixtures of monocaproin with polar solvents (miscibility); format: physicochemical
Excerpt: Many galenic formulations of drugs contain polar solvents.

[2] = all compositions, in water; cited from earlier work
[3] = diluted water solution; cited from earlier work

Appearance ([1]; 5% Ethanol / 5% Propylene Glycol (w/w), 90% monocaproin): clear, low viscous
Appearance ([1]; 10% (w/w) Ethanol, 90% monocaproin): clear, low viscous
Appearance ([1]; 10% (w/w) Propylene Glycol, 90% monocaproin): clear, low viscous
Appearance ([1]; 90% (w/w) Ethanol, 10% monocaproin): clear, low viscous
SMILES: CCCCCC(=O)OCC(O)CO (stereo not drawn) [monocaproin, glycerolmonohexanoate]
phase behaviour of aqueous system [2]: one single liquid phase at all compositions
critical micellar concentration (cmc) [3]: 160 mM
